Tests used:
[1] = target: Nicotinamide phosphoribosyltransferase (Homo sapiens, UniProt P43490); assay: Inhibition of NAMPT (unknown origin) using NAM and PRPP as substrates incubated for 2 hrs in presence of ATP by fluorimetric plate reader assay
HepG2 = assay: Cytotoxicity against human HepG2 cells assessed as reduction in cell viability measured after 72 hrs by SRB assay; assay type: functional, cell-based; details: for IC50: HepG2, 72 h

Chain of Nicotinamide phosphoribosyltransferase (P43490 whole entry): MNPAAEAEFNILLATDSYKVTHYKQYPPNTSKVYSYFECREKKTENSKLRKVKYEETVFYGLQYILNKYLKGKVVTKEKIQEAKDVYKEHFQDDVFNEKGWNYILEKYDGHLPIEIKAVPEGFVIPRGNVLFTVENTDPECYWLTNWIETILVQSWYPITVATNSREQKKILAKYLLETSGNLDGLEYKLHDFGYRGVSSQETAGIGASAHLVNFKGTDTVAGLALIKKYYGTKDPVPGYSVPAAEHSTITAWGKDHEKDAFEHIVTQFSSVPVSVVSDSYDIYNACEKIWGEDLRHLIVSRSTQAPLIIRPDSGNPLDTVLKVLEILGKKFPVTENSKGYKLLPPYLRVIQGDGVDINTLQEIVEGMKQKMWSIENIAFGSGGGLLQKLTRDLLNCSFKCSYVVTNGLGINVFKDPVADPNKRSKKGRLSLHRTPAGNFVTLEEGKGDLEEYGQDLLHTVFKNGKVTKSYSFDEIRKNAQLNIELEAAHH

IC50 [1] | SMILES | inhibition (HepG2) | IC50 (HepG2)
2.15 µM | CCCOC(=O)c1ccc(NC(=O)NCc2cccnc2)cc1 | Dose-dependent effect | 15.2 µM
7.31 µM | CCOC(=O)c1ccc(NC(=O)NCc2ccnc(-n3ccnc3C)c2)cc1 | – | 24.3 µM
– | O=C(/C=C/c1cccnc1)NCCCCC1CCN(C(=O)c2ccccc2)CC1 [DAPORINAD] | – | 0.0187 µM

Source: ChEMBL document CHEMBL4613228, “Identification of small-molecule urea derivatives as novel NAMPT inhibitors via pharmacophore-based virtual screening” (Bioorg Med Chem, 2020)
